The values below come from patent US8969325B2, “TRPV1 antagonists” (AbbVie Inc., priority 2011, dated 2015).

In test [1] the target is T1, human TRPV1 (Homo sapiens (Human), UniProt Q8NER1). As to the kind of experiment: Capsaicin Activation Assay (intracellular Ca2+, FLIPR). It counts as cell-based. Particulars: recombinant HEK293 cells expressing hTRPV1, 50 nM capsaicin. The protocol: (Logan, Utah). Dulbecco's phosphate-buffered saline (D-PBS) (with 1 mg/mL glucose and 3.6 mg/l Na pyruvate, without phenol red), L-glutamine, hygromycin B, and Lipofectamine® were obtained from Life Technologies (Grand Island, N.Y.). G418 sulfate was obtained from Calbiochem-Novabiochem Corp. (San Diego, Calif.). […] (St. Louis, Mo.). […] The cDNA for human TRPV1 (hTRPV1) was isolated by reverse transcriptase-polymerase chain reaction (RT-PCR) from human small intestine poly A+ RNA supplied by Clontech (Palo Alto, Calif.) using primers designed surrounding the initiation and termination codons identical to the published sequences (Hayes et al. […] The resulting cDNA PCR products were subcloned into pCIneo mammalian expression vector (Promega) and fully sequenced using fluorescent dye-terminator reagents (Prism, PerkinElmer Applied Biosystems Division) and a PerkinElmer Applied Biosystems Model 373 DNA sequencer or Model 310 genetic analyzer. Expression plasmids encoding the hTRPV1 cDNA were transfected into HEK293 cells using Lipofectamine®. Forty-eight hours after transfection, the neomycin-resistant cells were selected with growth medium containing 800 μg/mL Geneticin (Life Technologies, formerly Gibco BRL). Surviving individual colonies were isolated and screened for TRPV1 activity. […] Compound stocks, 10 mM, were prepared in DMSO, and diluted serially across a 384-well plate using a Bravo BenchCel workstation (Agilent Technologies, Santa Clara, Calif.). […] On the day prior to the experiment, the recombinant HEK293 cells expressing human TRPV1 (hTRPV1) were removed from tissue culture flasks and plated in growth medium into black-walled clear-bottom 384-well Biocoat™ poly-D-lysine assay plates (BD Biosciences, Bedford, Mass.) using a Multidrop® dispenser (ThermoScientific, Waltham, Mass.). […] Molecular Devices, Sunnyvale, Calif.) was added to each well using the Multidrop® dispenser. […] Fluorescence readings were made at 1 to 5 second intervals over the course of the experimental run.
T1 sequence (Q8NER1 whole entry): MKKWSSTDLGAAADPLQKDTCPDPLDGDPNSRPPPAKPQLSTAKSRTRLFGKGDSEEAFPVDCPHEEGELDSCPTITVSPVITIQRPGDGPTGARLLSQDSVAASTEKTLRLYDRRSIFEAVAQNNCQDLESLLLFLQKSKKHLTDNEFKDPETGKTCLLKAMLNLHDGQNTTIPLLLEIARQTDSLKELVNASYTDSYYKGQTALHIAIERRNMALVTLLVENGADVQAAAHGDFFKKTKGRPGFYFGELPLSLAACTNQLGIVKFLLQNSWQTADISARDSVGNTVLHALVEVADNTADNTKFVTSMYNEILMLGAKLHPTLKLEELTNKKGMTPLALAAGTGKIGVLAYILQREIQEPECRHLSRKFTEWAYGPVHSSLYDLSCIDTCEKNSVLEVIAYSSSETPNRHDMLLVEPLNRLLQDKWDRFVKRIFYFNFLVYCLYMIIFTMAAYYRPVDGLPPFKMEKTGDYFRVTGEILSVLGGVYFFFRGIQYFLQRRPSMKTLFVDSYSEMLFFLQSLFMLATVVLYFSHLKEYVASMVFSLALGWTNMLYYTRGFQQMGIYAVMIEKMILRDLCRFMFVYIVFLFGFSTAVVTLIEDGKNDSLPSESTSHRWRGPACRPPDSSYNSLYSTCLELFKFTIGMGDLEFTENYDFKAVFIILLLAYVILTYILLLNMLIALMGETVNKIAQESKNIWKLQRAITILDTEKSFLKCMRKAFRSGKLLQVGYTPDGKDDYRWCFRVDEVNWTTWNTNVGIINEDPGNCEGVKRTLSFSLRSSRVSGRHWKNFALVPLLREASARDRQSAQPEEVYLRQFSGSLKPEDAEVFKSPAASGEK

For test [2], the target named is T1, human TRPV1. Put plainly: Acid Activation Assay (pH 5.0, intracellular Ca2+, FLIPR). It counts as cell-based. Particulars: percentage of the maximal pH 5.0-induced response remaining; recombinant HEK293 hTRPV1 cells; maximum concentration tested 37.5 μM. The protocol:
Dulbecco's modified Eagle's medium (DMEM) with 4.5 m g/mL D-glucose, fetal bovine serum, L-glutamine, and 2-morpholinoethanesulfonic acid (MES) were purchased from Sigma-Aldrich Co. (St. Louis, Mo.). Dulbecco's phosphate-buffered saline (DPBS) with Ca^2+, Mg^2+, and 1 mg/mL D-glucose (pH 7.4), Geneticin®, 0.25% trypsin-1 mM EDTA, and penicillin-streptomycin were purchased from Invitrogen Corp. (Carlsbad, Calif.). The FLIPR® Calcium 4 assay kit was purchased from Molecular Devices (Sunnyvale, Calif.).
The cDNA for human TRPV1 (hTRPV1) was isolated by reverse transcriptase-polymerase chain reaction (RT-PCR) from human small intestine poly A+ RNA supplied by Clontech (Palo Alto, Calif.) using primers designed surrounding the initiation and termination codons identical to the published sequences (Hayes et al. Pain 2000, 88, 205-215). The resulting cDNA PCR products were subcloned into pCIneo mammalian expression vector (Promega) and fully sequenced using fluorescent dye-terminator reagents (Prism, PerkinElmer Applied Biosystems Division) and a PerkinElmer Applied Biosystems Model 373 DNA sequencer or Model 310 genetic analyzer. Expression plasmids encoding the hTRPV1 cDNA were transfected into HEK293 cells using Lipofectamine®. Forty-eight hours after transfection, the neomycin-resistant cells were selected with growth medium containing 800 μg/mL Geneticin (Life Technologies, formerly Gibco BRL). Surviving individual colonies were isolated and screened for TRPV1 activity. Cells expressing recombinant TRPV1 were maintained at 37° C. in DMEM containing 4 mM L-glutamine, 300 μg/mL G418 (Calbiochem) and 10% fetal bovine serum under a humidified 5% CO2 atmosphere.
The functional activity of compounds at the TRPV1 receptor was determined by measurement of intracellular Ca^2+ levels ([Ca^2+]i) using the Fluorescence Imaging Plate Reader (FLIPR)TETRA®. All compounds were tested over a 12-point one-half-log concentration range with 37.5 μM being the maximum concentration tested. Compound stocks, 10 mM, were prepared in DMSO, and diluted serially across a 384-well plate using a Bravo BenchCel workstation (Agilent Technologies, Santa Clara, Calif.). On the day prior to the experiment, the recombinant HEK293 cells expressing human TRPV1 (hTRPV1) were removed from tissue culture flasks and plated in growth medium into black-walled clear-bottom 384-well Biocoat™ poly-D-lysine assay plates (BD Biosciences, Bedford, Mass.) using a Multidrop® dispenser (ThermoScientific, Waltham, Mass.). On the day of the experiment growth medium was removed, and the no-wash FLIPR® Calcium-4 dye (λEX=470-495 nm, λEM=515-575 nm) was added to each well using the Multidrop® dispenser. The plated cells were incubated for 90-120 min in the dark at 25° C. The test compounds dissolved in DMSO were then added to the plates using an Agilent Bravo workstation (Agilent Technologies Inc., Santa Clara, Calif.). Three minutes later, a pH 5.0 solution was added to each well. Reagents were delivered at a rate of 40 μL/sec, and the final assay volume was 80 μL. Acidic pH solutions were prepared by titration of DPBS/MES with 1 N HCl. The intensity of the fluorescence was captured and digitally transferred to an interfaced PC. The maximum peak measured for the concentration range tested was used to calculate the corresponding peak increase in fluorescence over baseline (relative fluorescence units) which was expressed as the percentage (max % remain) of the maximal pH 5.0-induced response.
Table 1 reports the percentage (max % remain) of the maximal pH 5.0-induced response measured for the compounds tested in the recombinant HEK293 cell assay. Most of the compounds tested inhibited calcium flux only partially following TRPV1 activation by the pH 5.0 solution.

As a reminder, the IC50 is the midpoint of a concentration-inhibition curve. For the compound `CN1C(=O)NCc2c(NC(=O)N[C@@H]3C[C@](C)(C(F)F)Oc4ccccc43)cccc21` [Example 12, 1-[(2R,4R)-2-(difluoromethyl)-2-methyl-3,4-dihydro-2H-chromen-4-yl]-3-(1-methyl-2-oxo-1,2,3,4-tetrahydroquinazolin-5-yl)urea], the IC50 at human TRPV1 [1] amounted to 32 nM. Further, on human TRPV1 [2], the “human TRPV1 H^+ (max % remain)” value came out at 28%.
As to `CN1C(=O)NCc2c(NC(=O)N[C@@H]3C[C@@](C)(CF)Oc4cc(Cl)ccc43)cccc21` [Example 14, 1-[(2S,4R)-7-chloro-2-(fluoromethyl)-2-methyl-3,4-dihydro-2H-chromen-4-yl]-3-(1-methyl-2-oxo-1,2,3,4-tetrahydroquinazolin-5-yl)urea], the IC50 on human TRPV1 [1] amounted to 63 nM. At human TRPV1 [2], the “human TRPV1 H^+ (max % remain)” value came out at 23%.
Consider `CN1C(=O)NCc2c(NC(=O)N[C@@H]3CC4(CCCC4)Oc4ccccc43)cccc21` [Example 15, 1-[(4R)-3,4-dihydrospiro[chromene-2,1′-cyclopentan]-4-yl]-3-(1-methyl-2-oxo-1,2,3,4-tetrahydroquinazolin-5-yl)urea], for which, at human TRPV1 [1], the IC50 turned out to be 21 nM. At human TRPV1 [2], the “human TRPV1 H^+ (max % remain)” value amounted to 40%.
As to `CN1Cc2ccc(NC(=O)N[C@@H]3CC(C)(C)Oc4c3cccc4C(F)(F)F)cc2NC1=O` [Example 16, 1-[(4R)-2,2-dimethyl-8-(trifluoromethyl)-3,4-dihydro-2H-chromen-4-yl]-3-(3-methyl-2-oxo-1,2,3,4-tetrahydroquinazolin-7-yl)urea], the half-maximal inhibitory concentration (IC50) on human TRPV1 [1] is 100 nM. Besides, the “human TRPV1 H^+ (max % remain)” value on human TRPV1 [2] is recorded as 53%.
The corresponding values for `Cn1c(=O)ccc2c(NC(=O)N[C@@H]3CC(CF)(CF)Oc4cc(Cl)ccc43)cccc21` [Example 20, 1-[(4R)-7-chloro-2,2-bis(fluoromethyl)-3,4-dihydro-2H-chromen-4-yl]-3-(1-methyl-2-oxo-1,2-dihydroquinolin-5-yl)urea] are 58 nM and 34%.
The corresponding values for `Cn1c(=O)ccc2c(NC(=O)N[C@@H]3CC(CF)(CF)Oc4c3ccc(Cl)c4F)cccc21` [Example 21, 1-[(4R)-7-chloro-8-fluoro-2,2-bis(fluoromethyl)-3,4-dihydro-2H-chromen-4-yl]-3-(1-methyl-2-oxo-1,2-dihydroquinolin-5-yl)urea] are 26 nM and 48%.
Turning to `Cn1c(=O)ccc2c(NC(=O)N[C@@H]3CC(C)(C)Oc4c3ccc(F)c4Cl)cccc21` [Example 22, 1-[(4R)-8-chloro-7-fluoro-2,2-dimethyl-3,4-dihydro-2H-chromen-4-yl]-3-(1-methyl-2-oxo-1,2-dihydroquinolin-5-yl)urea], the IC50 at human TRPV1 [1] is 15 nM. Also, the “human TRPV1 H^+ (max % remain)” value on human TRPV1 [2] was found to be 47%.
On to `Cn1c(=O)ccc2c(NC(=O)N[C@@H]3CC(C)(C)Oc4cc(Cl)ccc43)cccc21` [Example 23, 1-[(4R)-7-chloro-2,2-dimethyl-3,4-dihydro-2H-chromen-4-yl]-3-(1-methyl-2-oxo-1,2-dihydroquinolin-5-yl)urea], for which, on human TRPV1 [1], the IC50 amounted to 16 nM. In addition, on human TRPV1 [2], the “human TRPV1 H^+ (max % remain)” value turned out to be 50%.
For `Cn1c(=O)ccc2c(NC(=O)N[C@@H]3C[C@@](C)(C(F)(F)F)Oc4ccccc43)cccc21` [Example 25, 1-(1-methyl-2-oxo-1,2-dihydroquinolin-5-yl)-3-[(2S,4R)-2-methyl-2-(trifluoromethyl)-3,4-dihydro-2H-chromen-4-yl]urea] the same measures were 18 nM and 65%.
Turning to `Cn1c(=O)ccc2c(NC(=O)N[C@@H]3C[C@@](C)(C(F)F)Oc4ccccc43)cccc21` [Example 26, 1-[(2S,4R)-2-(difluoromethyl)-2-methyl-3,4-dihydro-2H-chromen-4-yl]-3-(1-methyl-2-oxo-1,2-dihydroquinolin-5-yl)urea], the IC50 on human TRPV1 [1] turned out to be 25 nM. In addition, the “human TRPV1 H^+ (max % remain)” value on human TRPV1 [2] was 54%.
For `O=C1COc2ccc(NC(=O)N[C@@H]3CC(CF)(CF)Oc4cc(Cl)ccc43)cc2N1` [Example 29, 1-[(4R)-7-chloro-2,2-bis(fluoromethyl)-3,4-dihydro-2H-chromen-4-yl]-3-(3-oxo-3,4-dihydro-2H-1,4-benzoxazin-6-yl)urea], the IC50 on human TRPV1 [1] worked out at 100 nM. In addition, at human TRPV1 [2], the “human TRPV1 H^+ (max % remain)” value is 93%.
Turning to `Cn1c(=O)ccc2c(NC(=O)N[C@@H]3C[C@](C)(CF)Oc4cc(Cl)ccc43)cccc21` [Example 40, 1-[(2R,4R)-7-chloro-2-(fluoromethyl)-2-methyl-3,4-dihydro-2H-chromen-4-yl]-3-(1-methyl-2-oxo-1,2-dihydroquinolin-5-yl)urea], on human TRPV1 [1], the IC50 amounted to 22 nM. Besides, the “human TRPV1 H^+ (max % remain)” value on human TRPV1 [2] stood at 38%.
`Cn1c(=O)ccc2c(NC(=O)N[C@@H]3C[C@@](C)(CF)Oc4cc(Cl)ccc43)cccc21` [Example 41, 1-[(2S,4R)-7-chloro-2-(fluoromethyl)-2-methyl-3,4-dihydro-2H-chromen-4-yl]-3-(1-methyl-2-oxo-1,2-dihydroquinolin-5-yl)urea]: the IC50 on human TRPV1 [1] was found to be 12 nM. Besides, the “human TRPV1 H^+ (max % remain)” value at human TRPV1 [2] is 74%.
In the case of `CC1(C)C[C@@H](NC(=O)Nc2ccc3c(c2)NC(=O)N(CCO)C3)c2cccc(F)c2O1` [Example 42, 1-[(4R)-8-fluoro-2,2-dimethyl-3,4-dihydro-2H-chromen-4-yl]-3-[3-(2-hydroxyethyl)-2-oxo-1,2,3,4-tetrahydroquinazolin-7-yl]urea], the IC50 at human TRPV1 [1] was 510 nM. For the same compound, at human TRPV1 [2], the “human TRPV1 H^+ (max % remain)” value came out at 8%.
As to `CC1(C)C[C@@H](NC(=O)Nc2ccc3c(c2)NC(=O)N(CCO)C3)c2ccc(F)cc2O1` [Example 43, 1-[(4R)-7-fluoro-2,2-dimethyl-3,4-dihydro-2H-chromen-4-yl]-3-[3-(2-hydroxyethyl)-2-oxo-1,2,3,4-tetrahydroquinazolin-7-yl]urea], the IC50 on human TRPV1 [1] turned out to be 94 nM. Besides, the “human TRPV1 H^+ (max % remain)” value on human TRPV1 [2] came out at 8%.
Consider `CCC1(CC)C[C@@H](NC(=O)Nc2ccc3c(c2)NC(=O)N(CCO)C3)c2cccc(F)c2O1` [Example 44, 1-[(4R)-2,2-diethyl-8-fluoro-3,4-dihydro-2H-chromen-4-yl]-3-[3-(2-hydroxyethyl)-2-oxo-1,2,3,4-tetrahydroquinazolin-7-yl]urea], for which the IC50 on human TRPV1 [1] stood at 65 nM. Besides, the “human TRPV1 H^+ (max % remain)” value at human TRPV1 [2] was determined as 3%.
